Measurements reported in paper PMC12951430, “Modular Vinyl Phosphonamidates for Cysteine-Directed Protein Targeting” (Journal of the American Chemical Society, 2026).
“And” between values parts separate entries of the source, which are not always exact repeats. Equal values may be shown once. “Also recorded” adds a separate entry of the source. Read-outs that look alike come from different tables or passages of the source.

Key:
RAMOS cell lysate = assay: Gel-based ABPP of alkyne probes in RAMOS cell lysate; design: species or system human; details: RAMOS cell lysate 1 mg/mL, 10 and 100 μM, 1 h
Description: Greater reactivity yields a higher isoDTB ratio. Ratios ≥ 4 (dashed line) are considered liganded.
Nonetheless, since the formation of the glutathione conjugate was clearly notable, we wanted to investigate the reactivity of 1a with a more diverse set of thiols. Therefore, we examined all three electrophilic groups for their ability to label cysteines in whole-cell lysates. First, alkyne-functionalized reagents (1b–3b, for structures, see Scheme S1) were synthesized to allow for gel-based activity-based protein profiling (ABPP). […] Since all compounds share the same scaffold and differ only by their reactive functional group, we anticipate that any differences in labeling intensity should primarily stem from differences in electrophilicity. […] CAPA reporter cells were prepared by transiently transfecting HEK293T with a plasmid enabling the cytoplasmic expression of the Halotag protein, and concentration-dependent cell permeability was assessed. […]
Cells were harvested by centrifugation, washed trice with ice cold PBS (Ph 7.4) and stored at -70°C until lysis. […] Lysates were cleared by centrifugation (15’000 rcf) and the proteinconcentration was determined via BCA assay (Pierce BCA Protein Assay Kit, Thermo Fisher Scientific) according to the vendors instructions. […]

wt EGFR = target: T1, wt EGFR (Homo sapiens, UniProt P00533); assay: biochemical; type: biochemical
T1 construct: purchased Sino Biological
T1 sequence (P00533 25-1210): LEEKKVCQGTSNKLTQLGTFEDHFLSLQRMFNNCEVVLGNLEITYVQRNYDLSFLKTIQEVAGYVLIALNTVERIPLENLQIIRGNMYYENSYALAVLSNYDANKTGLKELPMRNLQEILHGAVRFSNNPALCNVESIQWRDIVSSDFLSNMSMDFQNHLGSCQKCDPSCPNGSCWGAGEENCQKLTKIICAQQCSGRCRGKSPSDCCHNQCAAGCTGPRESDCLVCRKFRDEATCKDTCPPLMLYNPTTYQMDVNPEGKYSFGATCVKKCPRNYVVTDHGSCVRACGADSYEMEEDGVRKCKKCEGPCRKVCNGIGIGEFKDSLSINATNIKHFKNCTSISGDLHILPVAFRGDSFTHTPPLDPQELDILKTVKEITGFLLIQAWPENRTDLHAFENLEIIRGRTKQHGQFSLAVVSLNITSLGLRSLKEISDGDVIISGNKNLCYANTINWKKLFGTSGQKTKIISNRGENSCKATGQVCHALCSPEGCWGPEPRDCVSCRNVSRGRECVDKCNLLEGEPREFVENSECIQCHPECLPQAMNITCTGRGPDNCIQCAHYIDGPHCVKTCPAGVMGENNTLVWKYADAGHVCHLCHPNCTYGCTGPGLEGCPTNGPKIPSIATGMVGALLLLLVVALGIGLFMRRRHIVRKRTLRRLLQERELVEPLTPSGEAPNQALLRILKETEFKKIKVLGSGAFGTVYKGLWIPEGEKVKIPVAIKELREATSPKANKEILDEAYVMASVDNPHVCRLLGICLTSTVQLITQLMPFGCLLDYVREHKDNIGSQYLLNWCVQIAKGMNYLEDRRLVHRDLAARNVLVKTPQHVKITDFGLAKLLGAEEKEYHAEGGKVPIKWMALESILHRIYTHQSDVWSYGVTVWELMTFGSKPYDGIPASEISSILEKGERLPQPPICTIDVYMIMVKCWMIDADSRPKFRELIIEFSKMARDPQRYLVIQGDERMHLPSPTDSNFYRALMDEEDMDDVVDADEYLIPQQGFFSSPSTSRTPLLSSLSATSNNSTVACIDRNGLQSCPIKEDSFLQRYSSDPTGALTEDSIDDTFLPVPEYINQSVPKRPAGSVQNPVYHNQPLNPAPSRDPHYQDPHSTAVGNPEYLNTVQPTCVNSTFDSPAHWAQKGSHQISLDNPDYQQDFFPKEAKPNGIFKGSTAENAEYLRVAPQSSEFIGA

wild-type EGFR = wild-type EGFR (Homo sapiens, UniProt P00533); assay: biochemical; details: in vitro kinase assay
Sequence of wild-type EGFR (P00533 25-1210): as above

EGFR in A431 cells = EGFR in A431 cells (Homo sapiens, UniProt P00533); assay: Gel-based ABPP of EGFR probes in A431 cells; details: for in-cell EGFR labeling, competition with excess Afatinib: pretreatment Afatinib 5 μM; for target selectivity in time-course labeling: 1 µM, up to 6 h
Sequence of EGFR in A431 cells (P00533 25-1210): as above
Protocol: With this probe in hand, we treated wild-type EGFR overexpressing A431 cells at a probe concentration of 1 μM for 1 h at 37 °C, followed by lysis and fluorescent labeling via CuAAC.
For EGFR -probes, A431 -cells were seeded at 60’000 cells/well in a 6-well plate (Greiner Bio-One) and incubated until 80 -100% confluencey. Before treatment , cells were washed twice with PBS. Cells were incubated with the indicated compound concentration (final conc. of 1% DMSO in RPMI -FCS ) at 37 °C.
After the incubati on, cells were washed twice with ice cold PBS and lysed in ice -cold RIPA -buffer containing cOmplete TM protease inhibitor (Roche), 50 mM iodo acetamide (I1149, Sigma Aldrich) and
Following a 10 min incubation at 37 °C lysat es were transferred
TBTA, 0.5 mM TCEP, 0.05 mM fluorescein-N3) in a shaker (800 rpm, 37 °C) for 45 minutes. Afterwards, proteins were precipitated with the 4-fold volume of acetonitrile and cetrifuged (14’00 rcf, 5 min). The solvent was removed and precipitates were resuspended in 80% EtOH followed by another round of centrifugation (10’000 rcf, 5 min). The pellets were aspirated and left to dry on air for 5-10 minutes.
and bands were quantified in ImageLab 6.1.

RAMOS cells = assay: Off-target reactivity in EGFR-negative RAMOS cells (gel-based); details: up to 10 μM, 1 h, 1 μM time course
Protocol: probe 5 in EGFR-negative RAMOS-cells. Cells (3x10^6/ml) were treated with the indicated probe-
concentration for 1 h @ 37 °C in RPMI –FCS. After the treatment, cells were processed according to the
Data is representative of three independent experiments. a) Fluorescent gel
of RAMOS-cells treated with the indicated probe-concentration. b) Relative fluorescent intensity of
three independent experiments c) Fluorescent gel of RAMOS-cells treated 1 µM probe 5 or 7 for the
indicated time. b) Relative fluorescent intensity of three independent experiments (quantitative results
were normalized to the most intense band in each replicate)
For BTK-probes, RAMOS-cells were seeded at 3x10^6 cells/ml (RMPI w/o FCS) and incubated with the indicated compound concentration (final conc. of 1% DM SO) at 37 °C. After the incubation, cells were harvested by centrifugation, washed twice with ice cold PBS and lysed in ice -cold RIPA-buffer containing cOmpleteTM protease inhibitor (Roche), 50 mM iodo acetamide (I1149, Sigma Aldrich) and
Following a 10 min incubation at 37 °C lysates were f urther processed as described above.

A431 cells = assay: Proteomic pulldown with EGFR probes in A431 cells (LFQ); type: cell-based, human; details: for # Labelled Proteins (total number of significantly enriched proteins) / off-targets enriched: 10 μM probe
Protocol: To gain a more detailed understanding of which proteins are labeled by the corresponding probe, we performed a proteomic pulldown experiment. […] . […] Additionally, we also wanted to investigate proteomic engagement under more extreme conditions, using a 10 μM probe concentration. […] Even though both probes enriched a large portion of proteins, EGFR was still among the most prominent hits for the phosphonamidate probe and only to a lesser extent for 5 (Figure S11). Overall, we observed a certain degree of complementarity between the off-targets obtained from the corresponding probes (Figures j and S12). […] Most prominently, selenoprotein SELENOT and solute carrier protein SLC25A32 were only enriched by phosphonamidate probe 7. On the other hand, several proteins like the cysteine proteases ATG4B, CTSB, and BOLA2 were exclusively enriched by DMAC probe 5.
Figure S 10: Volcano blots obtained from label free quantification of the proteins from streptavidin pulldowns performed with 1 µM probe 5 or 7 (in comparison to the DMSO treated sample). Proteins were identified and quantified and blotted as described in 4.8: Variance stabilization and Perseus-type […]
At the tested concentration, both probes solely enrich
EGFR. Data was obtained from 4 independent replicates.
Figure S 11: Volcano blots obtained from label free quantification of the proteins from streptavidin pulldowns performed with 10 µM probe 5 or 7 (in comparison to the DMSO treated sample). Proteins […]
imputation were enabled. Proteins surpassing a log 2 fold-change of 2.5 and a -log10 adjusted p-value […]
proteins can be found in Supplementary Table 1. Data was obtained from 4 independent replicates. […]
4.8 In-cell protein labeling and s ample preparation for proteomic pull-down Cells were cultured, treated and lysed as described in 4.4. Lysates (approx. 200 μg of protein each) […]
Afterwards, the samples we re processed according to a procedure published by Becker et al. 10: A total of 50 μl of mixed hydrophobic and hydrophilic carboxylate -coated magnetic beads (1:1, prewashed with PBS; Seramag™, Cytavia) was added to the click reaction mixture followed by 600 μl of absolute ethanol to precipitate the proteins. Beads were washed thrice with of 80% ethanol and proteins were eluted by two sequential washes of 0.2% SDS in PBS. The eluted proteins were directly transferred onto 30 μl of streptavidin-coated magnetic beads (prewashed with 0.2% SDS in PBS; New England Biolabs) and incubated on a shaker for 1 h at r.t. Streptavidin-beads were washed thrice with 8 M urea, PBS pH 7.4 and MilliQ water. Washed beads were resuspended in 100 mM ABC buffer, followed by […]
trypsinized overnight at 37 °C (1.5 µg/sample, Promega). The supernatant was removed, acidified to 1% TFA, centrifuged at 10‘000 rcf for 5 minutes and stored at -20 °C until measurement. Before MS/MS analysis a quality-control run was conducted on a Waters XEVO G2-XS QTof instrument to ensure […]
Samples were diluted based on the QC-runs to ensure equal loading. LC-MS/MS analysis was performed using an UltiMate 3000 RSLC nano LC system coupled on -line to an Orbitrap Fusion mass spectrometer (Thermo Fisher Scientific). For sample loading a PepMap C -18 trap-column (Thermo Fischer Scientific) of 0.075 mm ID x 50 mm length, 3 μm particle size and 100 Å pore size was used. The loading mobile phase A contained 1% acetonitrile and 0.05% TFA acid in water, and mobile phase B 0.05% TFA acid in acetonitrile. Reversed-phase separation was performed using a 50 cm analytical column (in-house packed with Poroshell 120 EC-C18, 2.7μm, Agilent Technologies) with mobile phase A contained 0.1% formic acid in water, and mobile phase B 0.1% formic acid in acetonitrile using a 93 […]
ions with charge states 2-4 were isolated with a mass selecting quadrupole (isolation window 1.6 m/z)

BTK in RAMOS cells = target: T2, BTK in RAMOS cells (Homo sapiens, UniProt Q06187); assay: Gel-based ABPP of BTK probes in RAMOS cells; type: cell-based; details: 250 nM, 1 h, 37 °C
T2 construct: we performed a gel-based ABPP experiment using RAMOS cells; host or cells: RAMOS
T2 sequence (Q06187 whole entry): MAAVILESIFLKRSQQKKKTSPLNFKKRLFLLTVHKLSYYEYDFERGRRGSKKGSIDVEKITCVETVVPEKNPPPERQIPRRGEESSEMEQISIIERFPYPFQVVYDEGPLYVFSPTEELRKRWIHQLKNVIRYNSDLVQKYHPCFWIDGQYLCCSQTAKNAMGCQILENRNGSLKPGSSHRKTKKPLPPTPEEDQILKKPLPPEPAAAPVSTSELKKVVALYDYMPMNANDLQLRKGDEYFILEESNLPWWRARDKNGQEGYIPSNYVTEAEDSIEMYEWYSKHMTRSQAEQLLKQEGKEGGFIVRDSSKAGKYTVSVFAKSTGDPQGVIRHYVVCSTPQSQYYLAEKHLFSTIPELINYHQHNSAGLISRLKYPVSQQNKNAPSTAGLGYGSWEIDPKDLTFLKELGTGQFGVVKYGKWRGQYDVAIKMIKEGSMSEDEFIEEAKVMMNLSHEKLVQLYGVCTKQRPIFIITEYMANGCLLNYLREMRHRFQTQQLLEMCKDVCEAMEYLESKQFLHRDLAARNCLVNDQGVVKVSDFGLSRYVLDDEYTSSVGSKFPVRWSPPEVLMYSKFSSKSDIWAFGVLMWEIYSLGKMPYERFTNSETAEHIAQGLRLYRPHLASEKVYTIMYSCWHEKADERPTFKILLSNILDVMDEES
Description: Motivated by these promising results, we wanted to extend the scope toward a different class of kinase inhibitors. […] Inspired by these findings, we synthesized a series of VPA probes based on the pyrazolo[3,4-d]-pyrimidine scaffold (8–11, Figure a), each harboring a different aromatic linker. To compare their reactivity and selectivity for BTK, we performed a gel-based ABPP experiment using RAMOS cells. […] In contrast, for all four PA probes, only one intense band was obtained at the same height as BTK. […] Analogously to Afatinib-derived probe 4a, we wanted to investigate whether one stereoisomer might show preferential binding.
(b) Comparison of the in-cell reactivity profiles of BTK probes 8–12 in RAMOS cells (250 nM, 1 h, 37 °C) analyzed by gel-based ABPP. […]
Fluorescence was monitored over 4 h at 30 °C every 60 seconds (λex = 360 nm and λem = 492 nm).
Background‑subtracted fluorescence intensity (RFU) was plotted against time (s), and data were fitted to a single‑phase association model: […]
4.7 In-cell protein labeling and in -gel fluorescence analysis […]
Afterwards, the precipitate was redissolved in 40 µl 8 M urea (100 mM Tris, pH 8), 8 µl Laemmli buffer were added and the samples were denatured at 95 °C for 5 minutes. Proteins were seperated via SDS - PAGE (12% or 4-20% acrylamide gels) and analyzed on a Gel Doc XR+ (Bio-Rad, USA). […]

| Compound | in-cell EGFR labeling, competition with excess Afatinib (EGFR in A431 cells; 1 h 37 °C) | target selectivity in time-course labeling (EGFR in A431 cells) | off-target labeling in EGFR-negative cells (RAMOS cells) | # Labelled Proteins (total number of significantly enriched proteins) (A431 cells; A431 cells) | off-targets enriched (A431 cells; A431 cells) | other results |
| --- | --- | --- | --- | --- | --- | --- |
| C#Cc1ccc(NC(=O)CCl)cc1 [3b] | – | – | – | – | – | fluorescent labeling signal (RAMOS cell lysate): most intense fluorescent signal |
| C=CP(=O)(Nc1cc2c(Nc3ccc(F)c(Cl)c3)ncnc2cc1O[C@H]1CCOC1)OCC (stereo partly shown) [4a] | – | – | – | – | – | Ki (wt EGFR; 4a 2–50 nM): 2430 pM; k inact (wt EGFR; 4a 2–50 nM): 0.24 × 10^–3 s^–1; k inact/K I ratio (wt EGFR; direct comparison): 97 × 10^3 M^–1 s^–1; IC50 (wild-type EGFR): 680 pM and 670 pM |
| C#CCCOP(=O)(C=C)Nc1cc2c(Nc3ccc(F)c(Cl)c3)ncnc2cc1O[C@H]1CCOC1 (stereo partly shown) [4c] | selective covalent engagement of EGFR | – | – | – | – | – |
| C#CCOc1cc2ncnc(Nc3ccc(F)c(Cl)c3)c2cc1NC(=O)/C=C/CN(C)C [compound 5, reference compound] | – | significantly higher off-target labeling | significant fluorescent labeling of off-targets | 327 | 118 | significantly enriched proteins (A431 cells; A431 cells, 1 μM probe, 2 h 37 °C, log2-fold change >2.5, adjusted p <0.01): solely enrich |
| C#CCOc1cc2ncnc(Nc3ccc(F)c(Cl)c3)c2cc1NP(=O)(C=C)OCC (stereo not shown) [compound 7] | EGFR-selective labeling | did not decrease | almost no labeling | 119 | 327 | lowest concentration with detectable labeling signal (EGFR in A431 cells; 1 h 37 °C): ≤ 5 nM; significantly enriched proteins (A431 cells): solely enrich; also recorded: EGFR is the only protein significantly enriched |
| C#CCCOP(=O)(C=C)Nc1ccccc1Cn1nc(-c2ccc(Oc3ccccc3)cc2)c2c(N)ncnc21 (stereo not shown) [compound 9] | – | – | – | – | – | in-cell reactivity profile (gel bands) (BTK in RAMOS cells): most intense labeling |
